# From patent US20190133968A1, “Applications of benzophenones in preparation of drug” (SHANXI MEDICAL UNIVERSITY, priority 2016, published 2019)
# Key:
# [1] = system: Escherichia coli ATCC25922 standard strain; assay: urinary and renal bacterial culture of acute pyelonephritis rats; type: in vivo, SD rats; details: gavage, 10 days; for Renal bacterial culture score: mean score, scale 1-4 of Table 10 (colony number <10, >10, >100, >1000); for Urinary bacterial A value (OD600 nm): urine culture
# Procedure: Ninety male SD rats having a weight of 180-220 g are selected, wherein: ten rats are selected as a sham-operated group (only being processed with ligation, without injecting with Escherichia coli), and the remaining rats are injected with Escherichia coli ATCC25922 standard strain having a concentration of 10^8/ml according to the method (disclosed in the Chinese Journal of Laboratory Animal Science, 1998, 8(1): pages 31-34) for preparing the acute pyelonephritis model rats.
# After three days, urine of the rats is collected for bacterial culture, and the growth situation of the bacteria is observed. If the result is positive, the model rats are successively established; the unqualified rats are excluded, and the operation is made again for complementing the rats. The successively established model rats are randomly divided into the model group, the norfloxacin group (66.7 mg/kg), the LM49 solid dispersion low-dose group (with the drug concentration of 3 mg/kg), the LM49 solid dispersion medium-dose group (with the drug concentration of 9 mg/kg), the LM49 solid dispersion high-dose group (with the drug concentration of 27 mg/kg), the A8 solid dispersion low-dose group (with the drug concentration of 3 mg/kg), the A8 solid dispersion medium-dose group (with the drug concentration of 9 mg/kg), and the A8 solid dispersion high-dose group (with the drug concentration of 27 mg/kg).
# The rats of the sham-operated group and the model group are administrated with the normal saline of same volume by gavage, and the rats of the other groups are respectively administrated with the drugs of the corresponding dose, once a day for consecutive ten days.
# After finishing administration, urine of the rats of all groups is collected (for observing the bacterial growth situation). The abdominal aorta blood of the rats is drawn (for measuring the blood routine, CD4/CD8, urine creatinine and serum creatinine in the serum; and for measuring contents of IL-1α, IL-1β, IL-6, IL-10 and MCP-1 in the serum with the ELISA method). Two kidneys of each rat are cut (wherein a part is homogenated for bacterial culture, and the other part is used for observing the pathomorphology change).
# chronic nephritis rats = assay: chronic nephritis rat model (passive Heymann nephritis); type: in vivo, SD rats; details: gavage; for IL-1α / IL-1β / IL-6 / IL-10 / Scr: serum
# Procedure: The solid dispersions are prepared through a solvent method, comprising steps of: respectively precisely weighing LM49, PVPK30 and tween80 with a weight ratio of 1:5:1, and A8, PVPK30 and tween80 with a weight ratio of 1:4:1; dissolving with appropriate absolute ethyl alcohol, continuously stirring, and uniformly mixing; placing on the water bath at 60° C., evaporating and removing the absolute ethyl alcohol, and obtaining a viscous material; placing in the freezer at −20° C., and freezing for 2 hours; taking out from the freezer, then placing in the vacuum drying oven, and drying for 24 hours; after becoming embrittlement, smashing and sieving with a sieve of 80 meshes, and then placing in the dryer for storage.
# The passive Heymann nephritis is the classic model for researching the human chronic nephrosis. Thus, the present invention researches the effects of the two disclosed compounds on preventing the chronic nephritis with the model.
# Ninety male SD rats having a weight of 180-220 g are selected, wherein: ten rats are selected as a blank group, and the remaining rats are used for preparing the rat Heymann nephritis models according to the method (disclosed in Journal of Proteomics, 2012, 75(3): pages 3866-3876). The successively established model rats are randomly divided into the model group, the positive control group (dexamethasone with a concentration of 0.1 mg/kg), the LM49 solid dispersion low-dose group (with the drug concentration of 3 mg/kg), the LM49 solid dispersion medium-dose group (with the drug concentration of 9 mg/kg), the LM49 solid dispersion high-dose group (with the drug concentration of 27 mg/kg), the A8 solid dispersion low-dose group (with the drug concentration of 3 mg/kg), the A8 solid dispersion medium-dose group (with the drug concentration of 9 mg/kg), and the A8 solid dispersion high-dose group (with the drug concentration of 27 mg/kg).
# The rats of the blank group and the model group are administrated with the normal saline of same volume, and the rats of the other groups are respectively administrated with the drugs of the corresponding dose, by gavage, every day from model establishment for four weeks.
# The blood of the rats of all groups is drawn at the second week and the fourth week from model establishment and 24-hour urine thereof is collected, for respectively measuring the contents of the urinary albumin, serum creatinine (Scr) in the serum, BUN, IL-1α, IL-1β, IL-6 and IL-10.
# The data is represented in mean±(standard deviation) (x±s) and processed with the SPSS 19.0 statistical software. The one-way analysis of variance (ANOVA) is adopted for comparison among the groups, and then the LSD-Test is adopted for pairwise comparison. The differences of P<0.05 and P<0.01 are statistically significant.
# [2] = high-dose 27 mg/kg, Fourth week
# [3] = high-dose 27 mg/kg, Second week
# [4] = medium-dose 9 mg/kg, Fourth week
# [5] = medium-dose 9 mg/kg, Second week
structure (smiles),measurement,setting,value
"O=C(c1cc(OC(=O)N2CCOCC2)c(OC(=O)N2CCOCC2)cc1Cl)c1cc(Cl)ccc1OC(=O)N1CCOCC1 [A8, 4,5,2′-tris(4-morpholinemethanoyl)-2,5′-dichlorobenzophenone]",Renal bacterial culture score,[1]; high-dose 27 mg/kg,1.5 ± 0.33^ΔΔ
same,Urinary bacterial A value (OD600 nm),[1]; high-dose 27 mg/kg,0.274 ± 0.113^ΔΔ
same,Renal bacterial culture score,[1]; low-dose 3 mg/kg,3.6 ± 0.57^
same,Urinary bacterial A value (OD600 nm),[1]; low-dose 3 mg/kg,0.332 ± 0.131^
same,Renal bacterial culture score,[1]; medium-dose 9 mg/kg,2.6 ± 0.23^Δ
same,Urinary bacterial A value (OD600 nm),[1]; medium-dose 9 mg/kg,0.304 ± 0.125^Δ
same,24-hour urinary protein quantitation,chronic nephritis rats; [2],8.26 ± 1.9^ΔΔ## mg/24 h
same,24-hour urinary protein quantitation,chronic nephritis rats; [3],14.77 ± 3.6^ΔΔ mg/24 h
same,IL-1α,chronic nephritis rats; [2],7.33 ± 2.14^ΔΔ pg/ml
same,IL-1β,chronic nephritis rats; [2],99.44 ± 39.74^ΔΔ# pg/ml
same,IL-6,chronic nephritis rats; [2],56.95 ± 20.44^ΔΔ pg/ml
same,IL-10,chronic nephritis rats; [2],40.21 ± 13.01 pg/mL
same,Scr,chronic nephritis rats; [2],44.55 ± 10.7 µmol/L
same,IL-1α,chronic nephritis rats; [3],10.69 ± 3.76 pg/mL
same,IL-1β,chronic nephritis rats; [3],198.20 ± 90.01^Δ pg/ml
same,IL-6,chronic nephritis rats; [3],78.66 ± 35.92^ΔΔ pg/ml
same,IL-10,chronic nephritis rats; [3],60.25 ± 22.34 pg/mL
same,Scr,chronic nephritis rats; [3],41.04 ± 10.1 µmol/L
same,24-hour urinary protein quantitation,"chronic nephritis rats; low-dose 3 mg/kg, Fourth week",30.22 ± 6.8 mg/24 h
same,24-hour urinary protein quantitation,"chronic nephritis rats; low-dose 3 mg/kg, Second week",32.98 ± 7.7 mg/24 h
same,IL-1α,"chronic nephritis rats; low-dose 3 mg/kg, Fourth week",12.65 ± 3.14 pg/mL
same,IL-1β,"chronic nephritis rats; low-dose 3 mg/kg, Fourth week",261.33 ± 76.55^ pg/ml
same,IL-6,"chronic nephritis rats; low-dose 3 mg/kg, Fourth week",89.33 ± 29.89^Δ pg/ml
same,IL-10,"chronic nephritis rats; low-dose 3 mg/kg, Fourth week",70.66 ± 32.28 pg/mL
same,Scr,"chronic nephritis rats; low-dose 3 mg/kg, Fourth week",47.36 ± 13.1 µmol/L
same,IL-1α,"chronic nephritis rats; low-dose 3 mg/kg, Second week",14.01 ± 3.99 pg/mL
same,IL-1β,"chronic nephritis rats; low-dose 3 mg/kg, Second week",310.21 ± 70.01 pg/mL
same,IL-6,"chronic nephritis rats; low-dose 3 mg/kg, Second week",111.79 ± 36.28 pg/mL
same,IL-10,"chronic nephritis rats; low-dose 3 mg/kg, Second week",89.33 ± 36.77 pg/mL
same,Scr,"chronic nephritis rats; low-dose 3 mg/kg, Second week",44.33 ± 11.1 µmol/L
same,24-hour urinary protein quantitation,chronic nephritis rats; [4],15.01 ± 4.4^ΔΔ mg/24 h
same,24-hour urinary protein quantitation,chronic nephritis rats; [5],20.02 ± 5.2^Δ mg/24 h
same,IL-1α,chronic nephritis rats; [4],10.10 ± 4.01 pg/mL
same,IL-1β,chronic nephritis rats; [4],192.56 ± 64.69^Δ pg/ml
same,IL-6,chronic nephritis rats; [4],73.57 ± 25.60^ΔΔ pg/ml
same,IL-10,chronic nephritis rats; [4],61.48 ± 24.53 pg/mL
same,Scr,chronic nephritis rats; [4],45.99 ± 14.4 µmol/L
same,IL-1α,chronic nephritis rats; [5],12.63 ± 4.56 pg/mL
same,IL-1β,chronic nephritis rats; [5],277.65 ± 60.39 pg/mL
same,IL-6,chronic nephritis rats; [5],90.31 ± 30.41^Δ pg/ml
same,IL-10,chronic nephritis rats; [5],74.55 ± 32.12 pg/mL
same,Scr,chronic nephritis rats; [5],45.66 ± 12.2 µmol/L
"O=C(c1cc(Br)ccc1O)c1cc(O)c(O)cc1Br [LM49, 2,5′-dibromo-4,5,2′-trihydroxyldiphenylmethanone]",Renal bacterial culture score,[1]; high-dose 27 mg/kg,1.9 ± 0.57^ΔΔ
same,Urinary bacterial A value (OD600 nm),[1]; high-dose 27 mg/kg,0.304 ± 0.109^Δ
same,Renal bacterial culture score,[1]; low-dose 3 mg/kg,3.9 ± 0.32^
same,Urinary bacterial A value (OD600 nm),[1]; low-dose 3 mg/kg,0.353 ± 0.128^
same,Renal bacterial culture score,[1]; medium-dose 9 mg/kg,3.4 ± 0.52^Δ
same,Urinary bacterial A value (OD600 nm),[1]; medium-dose 9 mg/kg,0.331 ± 0.100^Δ
same,24-hour urinary protein quantitation,chronic nephritis rats; [2],9.55 ± 2.8^ΔΔ## mg/24 h
same,24-hour urinary protein quantitation,chronic nephritis rats; [3],18.11 ± 3.2^Δ mg/24 h
same,IL-1α,chronic nephritis rats; [2],8.42 ± 2.76^ΔΔ pg/ml
same,IL-1β,chronic nephritis rats; [2],200.44 ± 59.31^Δ pg/ml
same,IL-6,chronic nephritis rats; [2],77.03 ± 36.53^ΔΔ pg/ml
same,IL-10,chronic nephritis rats; [2],31.42 ± 10.09 pg/mL
same,Scr,chronic nephritis rats; [2],46.97 ± 11.6 µmol/L
same,IL-1α,chronic nephritis rats; [3],11.44 ± 3.95 pg/mL
same,IL-1β,chronic nephritis rats; [3],227.21 ± 95.41^Δ pg/ml
same,IL-6,chronic nephritis rats; [3],91.11 ± 40.63^ΔΔ pg/ml
same,IL-10,chronic nephritis rats; [3],55.75 ± 17.61 pg/mL
same,Scr,chronic nephritis rats; [3],41.42 ± 10.6 µmol/L
same,24-hour urinary protein quantitation,"chronic nephritis rats; low-dose 3 mg/kg, Fourth week",22.18 ± 6.3 mg/24 h
same,24-hour urinary protein quantitation,"chronic nephritis rats; low-dose 3 mg/kg, Second week",34.43 ± 6.6 mg/24 h
same,IL-1α,"chronic nephritis rats; low-dose 3 mg/kg, Fourth week",13.98 ± 3.77 pg/mL
same,IL-1β,"chronic nephritis rats; low-dose 3 mg/kg, Fourth week",380.39 ± 80.66^ pg/ml
same,IL-6,"chronic nephritis rats; low-dose 3 mg/kg, Fourth week",130.12 ± 45.19 pg/mL
same,IL-10,"chronic nephritis rats; low-dose 3 mg/kg, Fourth week",60.01 ± 26.61 pg/mL
same,Scr,"chronic nephritis rats; low-dose 3 mg/kg, Fourth week",47.78 ± 11.2 µmol/L
same,IL-1α,"chronic nephritis rats; low-dose 3 mg/kg, Second week",14.53 ± 4.76 pg/mL
same,IL-1β,"chronic nephritis rats; low-dose 3 mg/kg, Second week",388.25 ± 72.31 pg/mL
same,IL-6,"chronic nephritis rats; low-dose 3 mg/kg, Second week",131.23 ± 41.33 pg/mL
same,IL-10,"chronic nephritis rats; low-dose 3 mg/kg, Second week",80.09 ± 33.11 pg/mL
same,Scr,"chronic nephritis rats; low-dose 3 mg/kg, Second week",49.44 ± 11.1 µmol/L
same,24-hour urinary protein quantitation,chronic nephritis rats; [4],17.65 ± 5.7^ΔΔ mg/24 h
same,24-hour urinary protein quantitation,chronic nephritis rats; [5],24.99 ± 5.0 mg/24 h
same,IL-1α,chronic nephritis rats; [4],12.15 ± 4.76 pg/mL
same,IL-1β,chronic nephritis rats; [4],297.55 ± 94.66^Δ pg/ml
same,IL-6,chronic nephritis rats; [4],90.66 ± 40.03^Δ pg/ml
same,IL-10,chronic nephritis rats; [4],51.51 ± 18.09 pg/mL
same,Scr,chronic nephritis rats; [4],46.57 ± 10.9 µmol/L
same,IL-1α,chronic nephritis rats; [5],13.62 ± 4.87 pg/mL
same,IL-1β,chronic nephritis rats; [5],351.11 ± 100.32 pg/mL
same,IL-6,chronic nephritis rats; [5],100.15 ± 32.51 pg/mL
same,IL-10,chronic nephritis rats; [5],61.31 ± 23.89 pg/mL
same,Scr,chronic nephritis rats; [5],45.88 ± 12.2 µmol/L
